Measured values taken from ChEMBL document CHEMBL6074636, “Design and activity evaluation of new EGFR tyrosine kinase inhibitors containing cyclic polyamines” (Bioorg Med Chem Lett, 2024).
Activity calls are given as the source filed them. No cut-off for these calls is given here.

How the values were obtained:
PC-9 [1] = test: cells; format: functional, cell-based; conditions: Homo sapiens, PC-9, 48 h
Description: Antiproliferative activity against human PC-9 cells expressing EGFR del19/T790M/C797S triple mutant assessed as inhibition of cell growth incubated for 48 hrs by CCK assay

PC-9 [2] = test: cells; format: functional, cell-based; conditions: Homo sapiens, PC-9, 48 h; remark: listed apart in the source
Description: Antiproliferative activity against human PC-9 cells assessed as inhibition of cell growth incubated for 48 hrs by CCK assay

A549 = test: cells; format: functional, cell-based; conditions: Homo sapiens, A549, 48 h
Description: Antiproliferative activity against human A549 cells expressing wild type EGFR assessed as inhibition of cell growth incubated for 48 hrs by CCK assay

NCI-H1975 = test: cells; format: functional, cell-based; conditions: Homo sapiens, NCI-H1975, 48 h
Description: Antiproliferative activity against human NCI-H1975 cells assessed as inhibition of cell growth incubated for 48 hrs by CCK assay

[3] = target: Epidermal growth factor receptor (Homo sapiens, UniProt P00533, EX19DEL); test: Inhibition of EGFR del19 mutant (unknown origin)
Sequence of Epidermal growth factor receptor (Homo sapiens, UniProt P00533, EX19DEL) (P00533 whole entry, looked up, stated change not applied): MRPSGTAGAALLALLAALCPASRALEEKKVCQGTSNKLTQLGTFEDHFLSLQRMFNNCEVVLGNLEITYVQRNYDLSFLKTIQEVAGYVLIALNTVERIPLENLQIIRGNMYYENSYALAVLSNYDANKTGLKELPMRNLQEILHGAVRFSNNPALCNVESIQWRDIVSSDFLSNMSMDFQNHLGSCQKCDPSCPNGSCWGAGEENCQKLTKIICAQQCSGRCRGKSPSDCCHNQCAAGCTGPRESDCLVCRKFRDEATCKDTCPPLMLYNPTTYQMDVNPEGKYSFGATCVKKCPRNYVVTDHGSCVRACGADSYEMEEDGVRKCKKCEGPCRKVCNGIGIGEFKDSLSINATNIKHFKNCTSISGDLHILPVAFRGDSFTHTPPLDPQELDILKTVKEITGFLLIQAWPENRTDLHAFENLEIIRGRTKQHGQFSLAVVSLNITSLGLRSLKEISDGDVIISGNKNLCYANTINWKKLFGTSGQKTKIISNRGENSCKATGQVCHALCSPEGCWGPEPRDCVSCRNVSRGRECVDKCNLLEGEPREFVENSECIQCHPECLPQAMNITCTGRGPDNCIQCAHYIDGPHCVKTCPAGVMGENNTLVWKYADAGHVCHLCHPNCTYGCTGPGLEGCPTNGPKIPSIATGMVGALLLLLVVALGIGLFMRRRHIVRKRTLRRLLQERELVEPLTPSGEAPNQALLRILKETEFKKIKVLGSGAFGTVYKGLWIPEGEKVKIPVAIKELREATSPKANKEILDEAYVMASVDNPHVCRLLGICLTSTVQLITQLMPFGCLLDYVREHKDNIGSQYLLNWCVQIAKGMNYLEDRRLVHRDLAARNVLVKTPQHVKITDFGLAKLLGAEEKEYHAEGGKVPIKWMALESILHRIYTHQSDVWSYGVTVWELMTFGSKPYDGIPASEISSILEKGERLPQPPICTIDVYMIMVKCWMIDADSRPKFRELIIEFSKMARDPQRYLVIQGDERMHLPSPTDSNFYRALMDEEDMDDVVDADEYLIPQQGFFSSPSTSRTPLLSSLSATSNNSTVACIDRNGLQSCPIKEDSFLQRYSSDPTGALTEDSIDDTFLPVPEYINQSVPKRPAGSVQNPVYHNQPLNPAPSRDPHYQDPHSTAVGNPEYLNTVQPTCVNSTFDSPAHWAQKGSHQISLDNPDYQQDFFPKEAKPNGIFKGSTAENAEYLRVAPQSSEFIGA

[4] = target: Epidermal growth factor receptor (Homo sapiens, UniProt P00533, C797S/L858R/T790M); test: Inhibition of EGFR L858R/T790M/C797S triple mutant (unknown origin)
Sequence of Epidermal growth factor receptor (Homo sapiens, UniProt P00533, C797S/L858R/T790M) (P00533 25-1210 T790M/C797S/L858R limits assumed): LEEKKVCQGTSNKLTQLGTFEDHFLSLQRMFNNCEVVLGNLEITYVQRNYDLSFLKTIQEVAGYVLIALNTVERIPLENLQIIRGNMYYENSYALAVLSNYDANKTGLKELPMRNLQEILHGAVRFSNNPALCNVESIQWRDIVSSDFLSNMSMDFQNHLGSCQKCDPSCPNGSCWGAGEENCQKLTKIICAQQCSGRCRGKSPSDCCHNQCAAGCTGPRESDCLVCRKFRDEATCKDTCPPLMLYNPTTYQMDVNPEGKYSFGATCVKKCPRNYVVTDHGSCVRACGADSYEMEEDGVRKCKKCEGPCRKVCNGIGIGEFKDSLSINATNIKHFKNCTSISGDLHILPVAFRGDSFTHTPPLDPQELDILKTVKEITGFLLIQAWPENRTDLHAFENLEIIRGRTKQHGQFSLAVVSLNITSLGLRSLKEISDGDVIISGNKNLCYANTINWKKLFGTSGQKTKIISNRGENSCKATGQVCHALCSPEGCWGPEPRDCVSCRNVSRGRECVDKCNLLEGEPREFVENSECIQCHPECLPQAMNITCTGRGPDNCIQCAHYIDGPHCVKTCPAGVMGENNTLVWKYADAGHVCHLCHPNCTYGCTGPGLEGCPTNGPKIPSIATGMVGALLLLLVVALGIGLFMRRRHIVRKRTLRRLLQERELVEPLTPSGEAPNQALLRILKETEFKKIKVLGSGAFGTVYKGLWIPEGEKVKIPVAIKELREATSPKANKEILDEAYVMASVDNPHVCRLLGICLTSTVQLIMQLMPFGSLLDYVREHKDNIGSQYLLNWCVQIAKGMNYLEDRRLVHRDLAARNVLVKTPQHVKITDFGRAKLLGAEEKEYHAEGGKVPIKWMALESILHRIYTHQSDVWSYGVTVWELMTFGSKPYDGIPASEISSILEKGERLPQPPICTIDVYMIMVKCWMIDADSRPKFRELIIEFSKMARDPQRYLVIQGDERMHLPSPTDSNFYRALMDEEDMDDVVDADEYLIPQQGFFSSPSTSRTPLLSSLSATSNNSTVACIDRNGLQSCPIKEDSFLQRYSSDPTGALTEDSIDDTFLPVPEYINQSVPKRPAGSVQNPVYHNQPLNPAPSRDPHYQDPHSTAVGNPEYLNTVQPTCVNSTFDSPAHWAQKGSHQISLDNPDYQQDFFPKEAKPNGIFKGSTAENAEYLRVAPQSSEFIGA

[5] = Cytotoxicity against human BEAS-2B cells assessed as inhibition of cell growth incubated for 48 hrs by CCK-8 assay; format: toxicity, cell-based
PC-9 [6] = test: Inhibition of cell migration in human PC-9 cells expressing EGFR del19/T790M/C797S triple mutant at 1 uM incubated for 48 hrs by transwell assay; format: functional, cell-based
PC-9 [7] = test: Inhibition of colony formation in human PC-9 cells expressing EGFR del19/T790M/C797S triple mutant at 100 nM; format: functional, cell-based
[8] = Selectivity index, ratio of IC50 for cytotoxicity against human BEAS-2B cells assessed as inhibition of cell growth to IC50 for antiproliferative activity against human PC-9 cells expressing EGFR del19/T790M/C797S triple mutant assessed as inhibition of cell growth; format: toxicity, cell-based; conditions: read-out: Ratio IC50
PC-9 [9] = test: Antiproliferative activity against human PC-9 cells expressing EGFR del19/T790M/C797S triple mutant assessed as reduction in cell proliferation at 100 to 500 nM incubated for 48 hrs Edu staining based analysis; format: functional; conditions: dose 100-500 nM
PC-9 [10] = test: Inhibition of colony formation in human PC-9 cells expressing EGFR del19/T790M/C797S triple mutant at 1 uM; format: functional, cell-based

IC50 (PC-9 [1]) | IC50 (PC-9 [2]) | IC50 (A549) | IC50 (NCI-H1975) | IC50 [3] | IC50 [4] | Compound | IC50 at 48 h [5] | inhibition (PC-9 [6]) | inhibition (PC-9 [7]) | selectivity ratio [8] | Activity (PC-9 [9]) | inhibition (PC-9 [10])
3.43 µM | 49.3 µM | 3.32 µM | 4.85 µM |  |  | CCc1cc(Br)ccc1Nc1ncnc2cc3c(cc12)NC(=O)CN(CC(=O)O)CCN(CC(=O)O)CC(=O)N3 |  |  |  |  |  | 
6.7 µM | 12.3 µM | 35.1 µM | 3.04 µM |  |  | COc1cccc(Nc2ncnc3cc4c(cc23)NC(=O)CN(CC(=O)O)CCN(CC(=O)O)CC(=O)N4)c1 |  |  |  |  |  | 
14.2 µM | 32.9 µM | 3.91 µM | 3.91 µM |  |  | O=C(O)CN1CCN(CC(=O)O)CC(=O)Nc2cc3c(Nc4ccccc4)ncnc3cc2NC(=O)C1 |  |  |  |  |  | 
1.09 µM | 6.57 µM | 4.02 µM | 2.49 µM | 0.18 µM | 0.22 µM | O=C(O)CN1CCN(CC(=O)O)CC(=O)Nc2cc3c(Nc4ccc(OCc5cccc(F)c5)c(Cl)c4)ncnc3cc2NC(=O)C1 |  |  |  |  |  | 
0.767 µM | 2.7 µM | 7.78 µM | 3.44 µM | 0.161 µM | 0.251 µM | O=C(O)CN1CCN(CC(=O)O)CC(=O)Nc2cc3c(Nc4ccc(Br)cc4F)ncnc3cc2NC(=O)C1 |  |  |  |  |  | 
1.52 µM | 10.2 µM | > 100 µM | 8.11 µM | 0.378 µM | 0.321 µM | CCc1cccc(Nc2ncnc3cc4c(cc23)NC(=O)CN(CC(=O)O)CCN(CC(=O)O)CC(=O)N4)c1 |  |  |  |  |  | 
3.6 µM | 31.6 µM | > 100 µM | 4.41 µM |  |  | O=C(O)CN1CCN(CC(=O)O)CC(=O)Nc2cc3c(Nc4cccc(Br)c4)ncnc3cc2NC(=O)C1 |  |  |  |  |  | 
13.2 µM | 7.87 µM | > 100 µM | 18.9 µM |  |  | O=C(O)CN1CCN(CC(=O)O)CC(=O)Nc2cc3c(Nc4ccc(F)c(Cl)c4)ncnc3cc2NC(=O)C1 |  |  |  |  |  | 
0.496 µM | 1.13 µM | 0.946 µM | 1.41 µM | 0.136 µM | 0.161 µM | O=C(O)CN1CCN(CC(=O)O)CC(=O)Nc2cc3c(Nc4cccc(F)c4)ncnc3cc2NC(=O)C1 | 17.2 µM | Active | Active | 34.7 | Active | Active
4.61 µM | 12.5 µM | 1.38 µM | 4.43 µM | > 1000 µM | > 1000 µM | O=C1CNCCNCC(=O)Nc2cc3c(Nc4ccc(F)c(Cl)c4)ncnc3cc2N1 |  |  |  |  |  | 
1.26 µM | 1.53 µM | 56 µM | 5.75 µM |  |  | C#Cc1cccc(Nc2ncnc3cc4c(cc23)OCCOCCOCCO4)c1 [ICOTINIB] |  |  |  |  |  | 
11 µM | 1.66 µM | > 100 µM | 4.54 µM |  |  | O=C(O)CN1CCN(CC(=O)O)CC(=O)Nc2cc3c(Nc4ccc(Cl)cc4Cl)ncnc3cc2NC(=O)C1 |  |  |  |  |  | 
84 µM | 30.7 µM | 2.26 µM | 23.3 µM |  |  | O=C(O)CN1CCN(CC(=O)O)CC(=O)Nc2cc3c(Nc4cccc(Cl)c4)ncnc3cc2NC(=O)C1 |  |  |  |  |  | 

Compound | IC50 (PC-9 [1]) | IC50 (PC-9 [2]) | IC50 (A549) | IC50 (NCI-H1975) | IC50 [3] | IC50 [4] | IC50 at 48 h [5] | inhibition (PC-9 [6]) | inhibition (PC-9 [7]) | selectivity ratio [8] | Activity (PC-9 [9]) | inhibition (PC-9 [10])
C=CC(=O)Nc1cc(Nc2nccc(-c3cn(C)c4ccccc34)n2)c(OC)cc1N(C)CCN(C)C [OSIMERTINIB] | 0.912 µM | 0.08 µM | 0.637 µM | […] |  |  | 20.1 µM |  |  |  |  | 
